Results as given in ChEMBL document CHEMBL4265970, “2'-Aryl and 4'-arylidene substituted pyrazolones: As potential α-amylase inhibitors” (Eur J Med Chem, 2018).

Experiments:
[1] = molecular target: T1, Alpha amylase (Homo sapiens, UniProt P0DUB6); test: Inhibition of alpha-amylase (unknown origin) using starch as substrate preincubated for 10 mins followed by substrate addition measured after 10 mins by dinitrosalicylic acid color reagent based assay
T1 sequence (P0DUB6 whole entry): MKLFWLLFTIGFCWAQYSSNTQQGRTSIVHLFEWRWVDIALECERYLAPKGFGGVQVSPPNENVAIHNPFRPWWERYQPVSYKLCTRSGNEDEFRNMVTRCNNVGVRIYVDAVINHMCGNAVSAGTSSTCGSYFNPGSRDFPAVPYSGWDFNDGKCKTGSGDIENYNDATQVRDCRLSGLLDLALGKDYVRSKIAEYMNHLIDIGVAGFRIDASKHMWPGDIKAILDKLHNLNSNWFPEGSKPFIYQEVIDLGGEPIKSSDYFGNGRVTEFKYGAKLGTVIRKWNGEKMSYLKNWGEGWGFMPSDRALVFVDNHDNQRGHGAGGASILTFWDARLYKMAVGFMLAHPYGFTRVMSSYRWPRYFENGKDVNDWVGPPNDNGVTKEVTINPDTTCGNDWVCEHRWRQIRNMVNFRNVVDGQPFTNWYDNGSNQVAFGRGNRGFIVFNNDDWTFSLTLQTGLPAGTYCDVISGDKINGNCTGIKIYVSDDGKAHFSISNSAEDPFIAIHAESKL

[2] = molecular target: T1, Alpha amylase; test: Mixed-type inhibition of alpha-amylase (unknown origin) using p-nitrophenylR-D-maltoside as substrate incubated for 30 mins at 1 min time interval
[3] = test system: CC1=NN(c2ccc(Cl)cc2)C(=O)/C1=C/c1cc(Cl)cc(Cl)c1O; test: (§1) Mixed-type inhibition of alpha-amylase (unknown origin) assessed as Vmax for substrate using p-nitrophenylR-D-maltoside as substrate incubated for 30 mins at 1 min time interval; settings: Homo sapiens
[4] = test system: CC1=NN(c2ccc(Cl)cc2)C(=O)/C1=C/c1cc(F)ccc1Br; test: as §1; settings: Homo sapiens
[5] = test system: CC1=NN(c2ccc(Cl)cc2)C(=O)/C1=C/c1ccc(Br)cc1; test: as §1; settings: Homo sapiens
[6] = test system: COc1cc(/C=C2/C(=O)N(c3ccc(Cl)cc3)N=C2C)c(OC)cc1Br; test: as §1; settings: Homo sapiens
[7] = test system: COc1cc(/C=C2/C(=O)N(c3ccc(Cl)cc3)N=C2C)cc(OC)c1Br; test: as §1; settings: Homo sapiens
[8] = test system: COc1cc(/C=C2/C(=O)N(c3ccc(Cl)cc3)N=C2C)ccc1OC(C)=O; test: as §1; settings: Homo sapiens
[9] = test system: COc1ccc(/C=C2/C(=O)N(c3ccc(Cl)cc3)N=C2C)c(Cl)c1OC; test: as §1; settings: Homo sapiens
[10] = test system: COc1ccc(/C=C2/C(=O)N(c3ccc(Cl)cc3)N=C2C)cc1Br; test: as §1; settings: Homo sapiens
[11] = test system: CC1=NN(c2ccc(Cl)cc2)C(=O)/C1=C/c1cc(Cl)cc(Cl)c1O; test: (§2) Mixed-type inhibition of alpha-amylase (unknown origin) assessed as Km for substrate using p-nitrophenylR-D-maltoside as substrate incubated for 30 mins at 1 min time interval; settings: Homo sapiens
[12] = test system: CC1=NN(c2ccc(Cl)cc2)C(=O)/C1=C/c1cc(F)ccc1Br; test: as §2; settings: Homo sapiens
[13] = test system: CC1=NN(c2ccc(Cl)cc2)C(=O)/C1=C/c1ccc(Br)cc1; test: as §2; settings: Homo sapiens
[14] = test system: COc1cc(/C=C2/C(=O)N(c3ccc(Cl)cc3)N=C2C)c(OC)cc1Br; test: as §2; settings: Homo sapiens
[15] = test system: COc1cc(/C=C2/C(=O)N(c3ccc(Cl)cc3)N=C2C)cc(OC)c1Br; test: as §2; settings: Homo sapiens
[16] = test system: COc1cc(/C=C2/C(=O)N(c3ccc(Cl)cc3)N=C2C)ccc1OC(C)=O; test: as §2; settings: Homo sapiens
[17] = test system: COc1ccc(/C=C2/C(=O)N(c3ccc(Cl)cc3)N=C2C)c(Cl)c1OC; test: as §2; settings: Homo sapiens
[18] = test system: COc1ccc(/C=C2/C(=O)N(c3ccc(Cl)cc3)N=C2C)cc1Br; test: as §2; settings: Homo sapiens

| Molecule | IC50 [1] | Ki [2] | further results |
| --- | --- | --- | --- |
| CC1=NN(c2ccc(Cl)cc2)C(=O)/C1=C/c1c[nH]c2ccccc12 | 2160 nM | – | – |
| COc1cc(/C=C2/C(=O)N(c3ccc(Cl)cc3)N=C2C)ccc1OC(C)=O | 1940 nM | 2980 nM | – |
| CC1=NN(c2ccc(Cl)cc2)C(=O)/C1=C/c1cc(F)ccc1Br | 1930 nM | 3420 nM | – |
| COc1cc(/C=C2/C(=O)N(c3ccc(Cl)cc3)N=C2C)ccc1OCc1ccccc1 | 2330 nM | – | – |
| COc1cc(/C=C2/C(=O)N(c3ccc(Cl)cc3)N=C2C)cc(OC)c1 | 2210 nM | – | – |
| CC1=NN(c2ccc(Cl)cc2)C(=O)/C1=C/c1ccc(Br)cc1 | 1920 nM | 3840 nM | – |
| COc1cc(/C=C2/C(=O)N(c3ccc(Cl)cc3)N=C2C)c(OC)cc1Br | 1860 nM | 3120 nM | – |
| CC1=NN(c2ccc(Cl)cc2)C(=O)/C1=C/c1cc(Cl)cc(Cl)c1O | 1610 nM | 4260 nM | – |
| COc1ccc(OC)c(/C=C2/C(=O)N(c3ccc(Cl)cc3)N=C2C)c1 | 2130 nM | – | – |
| COc1ccc(/C=C2/C(=O)N(c3ccc(Cl)cc3)N=C2C)c(OC)c1OC | 2100 nM | – | – |
| COc1ccc(/C=C2/C(=O)N(c3ccc(Cl)cc3)N=C2C)cc1OC | 2030 nM | – | – |
| Alpha amylase (Homo sapiens) (from UniProt P0DUB6) | – | – | Vmax [3]: 79.7 µM/min; Vmax [4]: 71.2 µM/min; Vmax [5]: 73.4 µM/min; Vmax [6]: 71.4 µM/min; Vmax [7]: 65.2 µM/min; Vmax [8]: 70.5 µM/min; Vmax [9]: 70.6 µM/min; Vmax [10]: 68.3 µM/min; Km [11]: 3.4 mM; Km [12]: 3.11 mM; Km [13]: 3.26 mM; Km [14]: 3.04 mM; Km [15]: 2.92 mM; Km [16]: 2.9 mM; Km [17]: 3.14 mM; Km [18]: 2.86 mM |
| COc1cc(/C=C2/C(=O)N(c3ccc(Cl)cc3)N=C2C)cc(OC)c1OC | 2190 nM | – | – |
| COc1ccc(/C=C2/C(=O)N(c3ccc(Cl)cc3)N=C2C)c(Cl)c1OC | 1970 nM | 3540 nM | – |
| COc1cc(/C=C2/C(=O)N(c3ccc(Cl)cc3)N=C2C)cc(OC)c1Br | 1680 nM | 3240 nM | – |
| COc1ccccc1/C=C1/C(=O)N(c2ccc(Cl)cc2)N=C1C | 2020 nM | – | – |
| COc1ccc(/C=C2/C(=O)N(c3ccc(Cl)cc3)N=C2C)cc1Br | 1920 nM | 3840 nM | – |
| CC1=NN(c2ccc(Cl)cc2)C(=O)/C1=C/c1ccc([N+](=O)[O-])cc1 | 2380 nM | – | – |
| COc1ccc(/C=C2/C(=O)N(c3ccc(Cl)cc3)N=C2C)c(OC)c1 | 2010 nM | – | – |
